What was measured:
[1] = in vitro; conditions: human, Caco-2, pH 7.4
How it was run: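 Caco-2 monolayers, checked by TEER with Lucifer yellow as marker, were dosed with 10 μM compound in HBSS pH 7.4 in A-to-B and B-to-A directions. Incubation was 90 min at 37° C, in duplicate. Samples were quantified by LC-MS/MS and Papp calculated.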

[2] = Mouse brain uptake assay (MBUA), 3 mg/kg IV, 0-24 h, 4 time points; assay type: in vivo, male CD1 mice; conditions: for Kp / clearance / half-life / AUC(0-t) / Kp uu: male; for Kp: CD1, mouse, brain/plasma, iv, 3 mg/kg; for clearance / half-life: CD1, plasma, 4 time points; for clearance / half-life / AUC(0-t) / Kp uu / fraction unbound: mouse; for clearance / half-life / AUC(0-t) / Kp uu: 3 mg/kg IV, 0-24 h; for half-life: read-out: t½ (converted); for AUC(0-t) / Kp uu: CD1; for Kp uu: unbound brain/unbound plasma
Protocol: (§1) Example 38: Pharmacokinetics and Brain Penetration Experiment to Determine Brain and Plasma Concentrations of Compounds after IV Administration to Male CD1 Mice
(§2) The study design (9 animals) consisted of administrating the drug (IV: 3 mg/kg (5 mL/kg) via tail vein injection) and collecting samples at terminal bleeding for plasma and brain at 0.083, 0.5 and 1 h. The IV dosing solution was prepared in 50 mM citrate buffer (pH 4.0) at 0.6 mg/mL. The blood collection was performed as follows: the animal was restrained manually and approximately 150 μL blood/time point was collected into a dipotassium EDTA tube via retro orbital puncture under anesthesia with isoflurane. The blood sample was put on ice and centrifuged to obtain a plasma sample (2000 g, 5 min under 4° C.) within 15 minutes. The brain collection was performed as follows: a mid-line incision was made in the animal's scalp and the skin was retracted. Using small bone cutters and rongeurs, the skull overlying the brain was removed. The brain was removed using a spatula and the brain rinsed with cold saline. The brain was placed in screw-top tubes, and the tubes were stored at −70° C. until analysis.
(§3) An aliquot of 30 μL sample was added to 150 μL MeCN containing 50 ng/mL IS (Dexamethasone). The mixture was vortexed for 5 min and centrifuged at 14,000 rpm for 5 min. An aliquot of 5 μL supernatant was injected for LC-MS/MS analysis.
(§4) An aliquot of 30 μL brain homogenate (brain:PBS=1:3, w/v) sample was added to 150 μL IS in MeCN (Dexamethasone, 50 ng/mL). The mixture was vortexed for 5 min and centrifuged at 14,000 rpm for 5 min. An aliquot of 5 μL supernatant was injected for LC-MS/MS analysis.
(§5) The sample analysis was performed on LCMS/MS-003 (API4000, triple quadruple) under the following conditions: positive ion, ESI, MRM detection using dexamethasone as internal standard. HPLC conditions: mobile phase A: H2O (0.025% formic acid (FA) with 1 mM NH4OAc); mobile phase B: MeOH (0.025% FA with 1 mM NH4OAc) on Waters X-Bridge C18 (2.1×50 mm, 2.5 μm) column at 60° C.
A similar experiment was performed with 4 time points taken from 0-24 h.

[3] = molecular target: T1, Jurkat cells expressing CXCR4 (Homo sapiens, UniProt P61073); assay: Chemokine (CXCL12-AF647) binding inhibition assay; conditions: CXCL12-AF647 25 ng/mL, read-out: IC50 CXCL-12 binding Jurkat
T1 construct: endogenous in cells; host or cells: Jurkat
T1 sequence (P61073 whole entry): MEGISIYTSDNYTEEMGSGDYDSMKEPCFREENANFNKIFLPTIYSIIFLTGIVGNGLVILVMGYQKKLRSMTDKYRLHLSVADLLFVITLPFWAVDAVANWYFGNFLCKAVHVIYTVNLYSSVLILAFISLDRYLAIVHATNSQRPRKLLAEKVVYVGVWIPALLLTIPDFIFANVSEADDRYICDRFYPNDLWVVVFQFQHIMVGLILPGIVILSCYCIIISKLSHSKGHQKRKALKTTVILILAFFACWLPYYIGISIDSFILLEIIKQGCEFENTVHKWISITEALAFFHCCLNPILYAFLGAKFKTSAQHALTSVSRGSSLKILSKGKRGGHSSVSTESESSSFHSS
How it was run: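 Cells in HBSS, 20 mM HEPES, 0.2% BSA, pH 7.4, preincubated 15 min at room temperature with compound, then 25 ng/mL CXCL12-AF647 for 30 min. After washing and paraformaldehyde fixation, bound ligand read by flow cytometry; percent inhibition calculated from MFI relative to unlabeled and ligand-only controls.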

[4] = molecular target: T2, CXCR-4 transfected U87 cell line (U87.CXCR4) (Homo sapiens, UniProt P61073); assay: Intracellular CXCL-12-induced calcium mobilization assay (FLIPR); assay type: cell-based; conditions: U87.CXCR4 cells; CXCL-12 25-50 ng/mL; compound added 15 min before; read-out: IC50 CXCL-12 Ca^2+ flux U87.CXCR4+
T2 construct: expressed in transfected cells; host or cells: U87 (U87.CXCR4)
T2 sequence (P61073 whole entry): as above
How it was run: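 U87 cells stably expressing human CXCR4, loaded with Fluo-2 AM (4 μM final) for 45 min at 37 °C in HBSS/20 mM HEPES/0.2% BSA, pH 7.4. Calcium flux triggered by CXCL-12 (25-50 ng/mL) was followed by FLIPR fluorescence over time at 37 °C.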

[5] = Mouse brain uptake assay (MBUA), 3 mg/kg IV, 0-1 h, 3 time points; assay type: in vivo, male CD1 mice; conditions: for Kp / clearance / half-life / AUC(0-t) / Kp uu: male; for Kp: CD1, mouse, brain/plasma, iv, 3 mg/kg; for clearance / half-life: CD1, plasma, 3 time points; for clearance / half-life / AUC(0-t) / Kp uu / fraction unbound: mouse; for clearance / half-life / AUC(0-t) / Kp uu: 3 mg/kg IV, 0-1 h; for half-life: read-out: t½ (converted); for AUC(0-t) / Kp uu: CD1; for Kp uu: unbound brain/unbound plasma
Protocol: as §1, §2, §3, §4, §5

[6] = fraction unbound to brain proteins, read-out: Fu (b) %
[7] = fraction unbound to plasma proteins, read-out: Fu (p) %

SMILES | Papp A→B at 90 min, 10 μM [1] [×10⁻⁶ cm/s] | Papp B→A at 90 min, 10 μM [1] [×10⁻⁶ cm/s] | efflux ratio at 90 min, 10 μM [1] | Kp [2] | clearance [2] [mL/min/kg] | half-life [2] [min] | AUC(0-t) ([2]; brain, read-out: AUClast (b)) [ng·h/mL] | AUC(0-t) ([2]; plasma, read-out: AUClast (P)) [ng·h/mL] | IC50 [3] [nM] | IC50 [4] [nM] | Kp uu [2] | fraction unbound [2, 6] | fraction unbound [2, 7] | also measured
Cc1cccnc1[C@@H]1CCC[C@H](c2nc3cccc(N4CCN(C)C5(CC5)C4)c3[nH]2)N1C [I-108] | > 30 | 10 to 30 | 0.1 to 10 | 55.8 | 115 | 15.1 | 22800 | 408 | 0.01 to 100 | 100 to 1000 | – | – | – | –
Cc1cc(F)cnc1[C@@H]1CCC[C@H](c2nc3cccc(N4CCN(C)CC4)c3[nH]2)N1C [I-69] | 10 to 30 | 10 to 30 | 0.1 to 10 | 15 | 168 | 16.9 | 4080 | 272 | 0.01 to 100 | 0.01 to 100 | 1.98 | 0.016 | 0.121 | –
COc1cccnc1[C@@H]1CCC[C@H](c2nc3cccc(N4CCN(C)CC4)c3[nH]2)N1 [I-127] | 0.1 to 10 | 10 to 30 | 0.1 to 10 | – | – | – | – | – | 0.01 to 100 | 0.01 to 100 | – | – | – | Kp [5]: 0.31; clearance [5]: 132 mL/min/kg; half-life [5]: 23.2 min; AUC(0-t) ([5]; brain, read-out: AUClast (b)): 99.7 ng·h/mL; AUC(0-t) ([5]; plasma, read-out: AUClast (P)): 313 ng·h/mL; Kp uu ([5]; read-out: Kp, uu): 0.07; fraction unbound [5, 6]: 0.048; fraction unbound [5, 7]: 0.215
CN1[C@@H](c2nc3cccc(N4CCN5CCCC5C4)c3[nH]2)CCC[C@H]1c1ncccc1Cl (some centres unmarked) [I-96] | – | – | – | 31.2 | 102 | 13.7 | 15300 | 14800 | 0.01 to 100 | 100 to 1000 | 11.3 | 0.012 | 0.033 | –
CO[C@H]1C[C@H](c2nc3cccc(N4CCN(C)CC4)c3[nH]2)N(C)[C@H](c2ncccc2C)C1 [I-103] | 10 to 30 | 10 to 30 | 0.1 to 10 | 7.3 | 102 | 16.7 | 3280 | 449 | 0.01 to 100 | 100 to 1000 | – | – | – | –
Cc1cccnc1[C@@H]1CCC[C@H](c2nc3cccc(N4CCN(C(C)C)CC4)c3[nH]2)N1 [I-128] | 0.1 to 10 | 10 to 30 | 0.1 to 10 | 2.5 | – | – | 3940 | 1580 | 0.01 to 100 | 0.01 to 100 | 0.2 | 0.011 | 0.135 | –
Cc1cccnc1[C@@H]1CCC[C@H](c2nc3cccc(N4CCN(C5CC5)CC4)c3[nH]2)N1C [I-76] | > 30 | 10 to 30 | 0.1 to 10 | 57.2 | 46.5 | 11.6 | 59800 | 1050 | 0.01 to 100 | 0.01 to 100 | – | – | – | –
Cc1cccnc1[C@@H]1CCC[C@H](c2nc3ccccc3n2CC2CCN(C(C)C)CC2)N1C [I-23, 1-((1-isopropylpiperidin-4-yl)methyl)-2-((2R,6S)-1-methyl-6-(3-methylpyridin-2-yl)piperidin-2-yl)-1H-benzo[d]imidazole] | 0.1 to 10 | 0.1 to 10 | 0.1 to 10 | – | – | – | – | – | 0.01 to 100 | 0.01 to 100 | – | – | – | Kp [5]: 0.41; clearance [5]: 375 mL/min/kg; half-life [5]: 18.1 min; AUC(0-t) ([5]; brain, read-out: AUClast (b)): 49.7 ng·h/mL; AUC(0-t) ([5]; plasma, read-out: AUClast (P)): 120 ng·h/mL; Kp uu [5]: 0; fraction unbound [5, 6]: 0.002; fraction unbound [5, 7]: 0.189
Cc1cccnc1[C@@H]1CCC[C@H](c2nc3cccc(N4C5CCC4CN(C)C5)c3[nH]2)N1 [I-120] | 10 to 30 | 10 to 30 | 0.1 to 10 | 1.05 | – | – | 5110 | 4820 | 0.01 to 100 | 0.01 to 100 | 0.07 | 0.014 | 0.201 | –
COc1ccnc([C@@H]2CCC[C@H](c3nc4cccc(N5CCN(C)CC5)c4[nH]3)N2C)c1C [I-81] | 0.1 to 10 | 0.1 to 10 | 0.1 to 10 | 7.96 | 33.3 | 286 | 11700 | 1470 | 0.01 to 100 | 0.01 to 100 | 1.01 | 0.019 | 0.149 | –
Cc1cccnc1[C@@H]1CCC[C@H](c2nc3cccc(N4CCN(C)CC4)c3[nH]2)N1 [I-83] | 0.1 to 10 | 10 to 30 | 0.1 to 10 | – | – | – | – | – | 0.01 to 100 | 0.01 to 100 | – | – | – | Kp [5]: 0.35; clearance [5]: 101 mL/min/kg; half-life [5]: 38.2 min; AUC(0-t) ([5]; brain, read-out: AUClast (b)): 112 ng·h/mL; AUC(0-t) ([5]; plasma, read-out: AUClast (P)): 316 ng·h/mL; Kp uu ([5]; read-out: Kp, uu): 0.04; fraction unbound [5, 6]: 0.018; fraction unbound [5, 7]: 0.163
CN1CCC(n2ccnc2[C@H]2CCC[C@@H](c3ncccc3Cl)N2C)CC1 [I-170] | 10 to 30 | 10 to 30 | 0.1 to 10 | 7.23 | 56 | 229 | 6410 | 887 | 0.01 to 100 | ≥ 1000 | – | – | – | –
Cc1cccnc1[C@@H]1CCC[C@H](c2nc3cccc(N4CCN5CCCC5C4)c3[nH]2)N1C (some centres unmarked) [I-66] | 10 to 30 | 10 to 30 | 0.1 to 10 | 44.5 | 212 | 18.6 | 9320 | 209 | 0.01 to 100 | 0.01 to 100 | – | – | – | –
Cc1c(Cl)ccnc1[C@@H]1CCC[C@H](c2nc3cccc(N4CCN(C)CC4)c3[nH]2)N1C [I-82] | 10 to 30 | 10 to 30 | 0.1 to 10 | 4.27 | 172 | 16.3 | 1150 | 269 | 0.01 to 100 | 0.01 to 100 | 0.65 | 0.005 | 0.033 | –
Cc1cccnc1[C@@H]1CCC[C@H](c2nc3cccc(N4CC5CCC(C4)N5C)c3[nH]2)N1C [I-56] | 10 to 30 | 10 to 30 | 0.1 to 10 | 1.94 | 32.3 | 184 | 3000 | 1540 | 0.01 to 100 | 0.01 to 100 | 0.35 | 0.013 | 0.073 | –
